This note sets out measurements from patent publication US20060100431A1, “Biologically active compounds” (Amura Therapeutics Limited, priority 2002, published 2006).

A value given as a limit tells only on which side of the number the result lay.

Wild-type cruzipain, sequence (P25779 whole entry): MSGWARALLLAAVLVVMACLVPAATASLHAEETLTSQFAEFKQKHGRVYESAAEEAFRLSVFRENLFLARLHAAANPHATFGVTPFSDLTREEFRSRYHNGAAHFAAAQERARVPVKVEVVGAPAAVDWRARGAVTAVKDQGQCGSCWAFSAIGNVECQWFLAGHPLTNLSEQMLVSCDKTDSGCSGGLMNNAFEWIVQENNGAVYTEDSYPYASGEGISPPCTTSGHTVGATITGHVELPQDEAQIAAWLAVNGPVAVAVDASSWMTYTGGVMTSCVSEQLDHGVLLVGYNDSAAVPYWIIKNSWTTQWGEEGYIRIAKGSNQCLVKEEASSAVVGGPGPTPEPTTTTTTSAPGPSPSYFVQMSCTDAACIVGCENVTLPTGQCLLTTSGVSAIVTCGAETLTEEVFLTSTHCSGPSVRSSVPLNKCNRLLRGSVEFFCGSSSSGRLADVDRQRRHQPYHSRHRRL

The target in the experiment is Wild-type cruzipain (Trypanosoma cruzi, UniProt P25779). Put plainly: Trypanosoma cruzi cruzipain peptidase activity assay (Ki). The format is biochemical. The note with it: read-out: Ki, inhibitors of cruzain and cruzipains. The protocol:
Unless otherwise stated, all general chemicals and biochemicals were purchased from either the Sigma Chemical Company, Poole, Dorset, U.K or from Fisher Scientific UK, Loughborough, Leicestershire, U.K. Absorbance assays were carried out in flat-bottomed 96-well plates (Spectra; Greiner Bio-One Ltd., Stonehouse, Gloucestershire, U.K.) using a SpectraMax PLUS384 plate reader (Molecular Devices, Crawley, U.K.). Fluorescence high throughput assays were carried out in either 384-well microtitre plates (Corning Costar 3705 plates, Fisher Scientific) or 96-well ‘U’ bottomed Microfluor W1 microtitre plates (Thermo Labsystems, Ashford, Middlesex, U.K.). Fluorescence assays were monitored using a SpectraMax Gemini fluorescence plate reader (Molecular Devices). For substrates employing either a 7-amino-4-methylcoumarin (AMC) or a 7-amino-4-trifluoromethylcoumarin (AFC) fluorophore, assays were monitored at an excitation wavelength of 365 nm and an emission wavelength of 450 nm and the fluorescence plate reader calibrated with AMC. For substrates employing a 3-amino-benzoyl (Abz) fluorophore, assays were monitored at an excitation wavelength of 310 nm and an emission wavelength of 445 nm; the fluorescence plate reader calibrated with 3-amino-benzamide (Fluka). Unless otherwise indicated, all the peptidase substrates were purchased from Bachem UK, St Helens, Merseyside, UK. Substrates utilizing fluorescence resonance energy transfer methodology (i.e. FRET-based substrates) were synthesized at Incenta Limited using published methods (Atherton & Sheppard, Solid Phase Peptide Synthesis, IRL Press, Oxford, U.K, 1989) and employed Abz (2-aminobenzoyl) as the fluorescence donor and 3-nitro-tyrosine [Tyr(NO2)] as the fluorescence quencher (Meldal, M. and Breddam, K., Anal. Biochem, 195, 141-147, 1991). Hydroxyethylpiperazine ethanesulfonate (HEPES), tris-hydroxylmethyl aminomethane (tris) base, bis-tris-propane and all the biological detergents (e.g. CHAPS, zwittergents, etc.) were purchased from CN Biosciences UK, Beeston, Nottinghamshire, U.K. Glycerol was purchased from Amersham Pharmacia Biotech, Little Chalfont, Buckinghamshire, U.K. Stock solutions of substrate or inhibitor were made up to 10 mM in 100% dimethylsulfoxide (DMSO) (Rathburns, Glasgow, U.K.) and diluted as appropriately required. In all cases the DMSO concentration in the assays was maintained at less than 1% (vol./vol.).
Assay protocols were based on literature precedent (Table 4; Barrett, A. J., Rawlings, N. D. and Woessner, J. F., 1998, Handbook of Proteolytic Enzymes, Academic Press, London and references therein) and modified as required to suit local assay protocols. Enzyme was added as required to initiate the reaction and the activity, as judged by the change in fluorescence upon conversion of substrate to product, was monitored over time. All assays were carried out at 25±1° C.
Wild-type cruzipain, derived from Trypanosoma cruzi Dm28 epimastigotes, was obtained from Dr. Julio Scharfstein (Instituto de Biofisica Carlos Chagas Filho, Universidade Federal do Rio de Janeiro, Rio de Janeiro, Brazil). Activity assays were carried out in 100 mM sodium phosphate, pH 6.75 containing 1 mM EDTA and 10 mM L-cysteine using 2.5 nM enzyme. […] The rate of conversion of substrate to product was derived from the slope of the increase in fluorescence monitored continuously over time.
The apparent inhibition constant (Ki) for each compound was determined on the basis that inhibition was reversible and occurred by a pure-competitive mechanism. The Ki values were calculated, from the dependence of enzyme activity as a function of inhibitor concentration, by direct regression analysis (Prism v 3.02) using Equation 2 (Cornish-Bowden, A., 1995.). [formula]
As to `CC(C)C[C@H](NC(=O)c1ccc(N(C)C)cc1)C(=O)N1CC[C@@H]2[C@H]1C(=O)CN2C(=O)c1cccc[n+]1[O-]` [Example 80], the inhibitory constant (Ki) is less than 5 µM. To `CCn1nc(C)cc1C(=O)N[C@@H](Cc1ccc(O)cc1)C(=O)N1CC[C@@H]2[C@H]1C(=O)CN2C(=O)c1ccccc1S(C)(=O)=O` [Example 313, (3aR,6aS)-2-Ethyl-5-methyl-2H-pyrazole-3-carboxylic acid {(1S)-1-(4-hydroxy-benzyl)-2-[4-(2-methanesulfonylbenzoyl)-6-oxo-hexahydropyrrolo[3,2-b]pyrrole-1-yl]-2-oxo-ethyl}-amide] belongs less than 5 µM. For the compound `CC(C)C[C@H](NC(=O)c1ccc(C(C)(C)C)cc1)C(=O)N1CC[C@@H]2[C@H]1C(=O)CN2C(=O)c1ccccn1` [Example 4, (3aR,6aS)-4-tert-Butyl-N-{(1S)-3-methyl-1-[6-oxo-4-(pyridine-2-carbonyl)-hexahydro-pyrrolo[3,2-b]pyrrole-1-carbonyl]-butyl}-benzamide], the Ki was less than 5 µM. With `CC(=O)N(C)[C@@H](CC(C)C)C(=O)N1CC(=O)[C@@H]2[C@H]1CCN2C(=O)[C@H](CC(C)C)NC(=O)c1ccc(N(C)C)cc1` [Example 221, (3aR,6aS)-N-((1S)-1-{4-[(2S)-2-(Acetyl-methyl-amino)-4-methyl-pentanoyl]-6-oxo-hexahydro-pyrrolo[3,2-b]pyrrole-1-carbonyl}-3-methyl-butyl)-4-dimethylamino-benzamide] the figure was less than 5 µM; with `CC(C)C[C@H](NC(=O)c1ccc(N(C)C)cc1)C(=O)N1CC[C@@H]2[C@H]1C(=O)CN2C(=O)CN(C)C` [Example 227, (3aR,6aS)-4-Dimethylamino-N-{(1S)-1-[4-(2-dimethylamino-acetyl)-6-oxo-hexahydro-pyrrolo[3,2-b]pyrrole-1-carbonyl]-3-methyl-butyl}-benzamide], less than 5 µM; with `O=C(N[C@@H](Cc1ccc(F)cc1)C(=O)N1CC[C@@H]2[C@H]1C(=O)CN2C(=O)c1ccccc1)c1cccc(Br)c1` [Example 344, (3aR,6aS)-N-[(1S)-2-(4-Benzoyl-6-oxo-hexahydro-pyrrolo[3,2-b]pyrrol-1-yl)-1-(4-fluoro-benzyl)-2-oxo-ethyl]-3-bromo-benzamide], less than 5 µM. For `Cc1ccc(C(=O)N[C@@H](Cc2ccc(O)cc2)C(=O)N2CC[C@@H]3[C@H]2C(=O)CN3C(=O)c2ccccc2)cc1Br` [Example 337, (3aR,6aS)-N-[(1S)-2-(4-Benzoyl-6-oxo-hexahydro-pyrrolo[3,2-b]pyrrol-1-yl)-1-(4-hydroxy-benzyl)-2-oxo-ethyl)-3-bromo-4-methyl-benzamide], the Ki is less than 5 µM.

Consider `CC(C)C[C@H](NC(=O)c1ccc(N(C)C)cc1)C(=O)N1CC[C@@H]2[C@H]1C(=O)CN2C(=O)[C@@H](N)C(C)C` [Example 205, (3aR,6aS)-N-{(1S)-1-[4-((2S)-2-Amino-3-methyl-butyryl)-6-oxo-hexahydro-pyrrolo[3,2-b]pyrrole-1-carbonyl]-3-methyl-butyl}-4-dimethylamino-benzamide], for which the Ki was less than 5 µM. To `CC(C)C[C@H](NC(=O)c1ccc(N(C)C)cc1)C(=O)N1CC[C@@H]2[C@H]1C(=O)CN2C(=O)c1ccc(S(C)(=O)=O)s1` [Example 51, (3aR,6aS)-4-Dimethylamino-N-{(1S)-1-[4-(5-methanesulfonyl-thiophene-2-carbonyl)-6-oxo-hexahydro-pyrrolo[3,2-b]pyrrole-1-carbonyl]-3-methyl-butyl}-benzamide] belongs less than 5 µM; to `CC(C)(C)c1ccc(C(=O)N[C@@H](Cc2cccs2)C(=O)N2CC[C@@H]3[C@H]2C(=O)CN3C(=O)c2cccnc2)cc1` [Example 23, (3aR,6aS)-4-tert-Butyl-N-{(1S)-2-oxo-2-[6-oxo-4-(pyridine-3-carbonyl)-hexahydro-pyrrolo[3,2-b]pyrrole-1-yl]-1-thiophen-2-ylmethyl-ethyl}-benzamide], less than 5 µM.

With `CN(C)c1ccc(C(=O)N[C@@H](Cc2ccc(O)cc2)C(=O)N2CC[C@@H]3[C@H]2C(=O)CN3C(=O)c2cccc(F)c2)cc1` [Example 322], the Ki was less than 5 µM.
